Results reported in patent US20260116921A1, “PEPTIDE INHIBITORS OF INTERLEUKIN-23 RECEPTOR AND THEIR USE TO TREAT INFLAMMATORY DISEASES” (priority 2018, published 2026).
Where two headings read alike, the source gives them in different places. Numbered stars: 1 amine (or outer) side, 2 acyl side, 3 side chain; on linkers, the order of the positions; unused ones are H or OH. Bridge positions count the residues as written; N and C are the ends. Square brackets hold non-standard residues; d marks the D form. Peptide text beside a SMILES is read from it. X3 = CCc1ccc2c(C[C@H](N[*:1])C(=O)[*:2])c[nH]c2c1; Trp(7-Me) = Cc1cccc2c(C[C@H](N)C(=O)O)c[nH]c12; Trp(2-Me) = Cc1[nH]c2ccccc2c1C[C@H](N)C(=O)O; Abu(4-yl) = O=C([C@H](CC[*:3])N[*:1])[*:2]; 2Nal = N[C@@H](Cc1ccc2ccccc2c1)C(=O)O; d2Nal = N[C@H](Cc1ccc2ccccc2c1)C(=O)O; AEF = NCCOc1ccc(C[C@H](N)C(=O)O)cc1; Cit = NC(=O)NCCC[C@H](N)C(=O)O; Pen = CC(C)(S)[C@H](N)C(=O)O; αMeK = C[C@](N)(CCCCN)C(=O)O; Aib = CC(C)(N)C(=O)O

Assays:
[1] = target: T1, IL-23R (Homo sapiens, UniProt Q5VWK5); test: DB cells IL23R pSTAT3 cell assay (pStat3 HTRF); type: cell-based
T1 sequence (Q5VWK5 24-629): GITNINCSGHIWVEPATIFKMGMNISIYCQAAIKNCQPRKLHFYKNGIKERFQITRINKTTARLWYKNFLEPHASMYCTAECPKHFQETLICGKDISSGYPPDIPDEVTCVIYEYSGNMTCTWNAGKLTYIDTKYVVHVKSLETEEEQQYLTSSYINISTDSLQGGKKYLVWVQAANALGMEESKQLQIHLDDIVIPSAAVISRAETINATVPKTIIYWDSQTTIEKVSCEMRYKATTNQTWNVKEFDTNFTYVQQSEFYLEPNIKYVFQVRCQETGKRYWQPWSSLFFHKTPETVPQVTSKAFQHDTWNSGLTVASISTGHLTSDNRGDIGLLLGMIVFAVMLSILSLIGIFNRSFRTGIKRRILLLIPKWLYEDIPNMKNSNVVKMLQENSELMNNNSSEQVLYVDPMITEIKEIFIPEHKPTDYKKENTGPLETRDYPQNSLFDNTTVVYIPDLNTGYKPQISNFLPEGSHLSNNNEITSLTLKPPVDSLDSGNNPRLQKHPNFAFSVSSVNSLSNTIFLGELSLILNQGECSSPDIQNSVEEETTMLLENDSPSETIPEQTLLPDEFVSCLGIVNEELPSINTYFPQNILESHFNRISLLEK
Method in brief: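 HTRF readout of lysate pSTAT3 (Tyr705) after two-plate processing. Peptide dilution series co-incubated with IL-23 (0.5 nM final) on 5×10E5 IL-23R-expressing DB cells per well, 30 min, 37 °C.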

[2] = in vitro; conditions: cynomolgus monkey, 20% fecal homogenate (supernatant), anaerobic, pH 6.8
[3] = in vitro; conditions: human, 20% fecal homogenate (supernatant), anaerobic, pH 6.8
[4] = in vitro; conditions: both, SD, rat, plasma (EDTA)
[5] = Table E3, DB cells, IL-23 0.5 nM, 30 minutes at 37° C., read-out: pStat3 HTRF (IC50)

Row | Compound | IC50 [1] [nM] | half-life at 20 μM [2] [h] | IC50 [1, 5] [nM] | half-life at 20 μM [3] [h] | half-life at 20 μM [4] [h]
1 | CC(=O)N[C@H](CCCNC(=N)N)C(=O)N[C@H]1CCSC[C@@H](C(=O)N[C@@H](Cc2ccc(OCCN)cc2)C(=O)N[C@@H](Cc2ccc3ccccc3c2)C(=O)NC2(C(=O)N[C@@H](CCC(=O)O)C(=O)N[C@@H](CC(N)=O)C(=O)N[C@@H](CC(N)=O)C(N)=O)CCOCC2)NC(=O)[C@H](CCC(N)=O)NC(=O)[C@H](Cc2c[nH]c3c(C)cccc23)NC(=O)[C@H]([C@@H](C)O)NC(=O)[C@H](CCC(N)=O)NC1=O [compound 27] | < 1 | 3 | – | – | –
2 | CC(=O)NCCCC[C@H](NC(=O)[C@](C)(CC(C)C)NC(=O)[C@H](Cc1ccc2ccccc2c1)NC(=O)[C@H](Cc1ccc(OCCN)cc1)NC(=O)[C@H]1NC(=O)[C@H](CCC(N)=O)NC(=O)[C@H](Cc2c[nH]c3c(C)cccc23)NC(=O)[C@H]([C@@H](C)O)NC(=O)[C@H](CC(N)=O)NC(=O)[C@@H](NC(C)=O)C(C)(C)SSC1(C)C)C(=O)N1CCC[C@@H]1C(=O)NCCC(N)=O [compound 212] | – | > 24 | 10 to 100 | > 24 | –
3 | CC(=O)NCCCC[C@H](NC(=O)[C@](C)(CC(C)C)NC(=O)[C@H](Cc1ccc2ccccc2c1)NC(=O)[C@H](Cc1ccc(OCCN)cc1)NC(=O)[C@H]1NC(=O)[C@H](CCC(N)=O)NC(=O)[C@H](Cc2c[nH]c3c(C)cccc23)NC(=O)[C@H]([C@@H](C)O)NC(=O)[C@H](CC(N)=O)NC(=O)[C@@H](NC(C)=O)C(C)(C)SSC1(C)C)C(=O)N[C@H](CO)C(=O)NCCC(N)=O [compound 222] | – | > 24 | 1 to 10 | > 24 | –
4 | COc1cccc2[nH]cc(C[C@@H]3NC(=O)[C@H]([C@@H](C)O)NC(=O)[C@H](CC(N)=O)NC(=O)[C@@H](NC(C)=O)C(C)(C)SSC(C)(C)[C@@H](C(=O)N[C@@H](Cc4ccc(OCCN)cc4)C(=O)N[C@@H](Cc4ccc5ccccc5c4)C(=O)N[C@@](C)(CCCCN)C(=O)N[C@@H](CCCCNC(C)=O)C(=O)N[C@@H](CC(N)=O)C(=O)NCCC(N)=O)NC(=O)[C@H](CCC(N)=O)NC3=O)c12 [compound 229] | – | 7 | 10 to 100 | > 24 | –
5 | CC(=O)NCCCC[C@H](NC(=O)[C@](C)(CCCCN)NC(=O)[C@H](Cc1ccc2ccccc2c1)NC(=O)[C@H](Cc1ccc(OCCN)cc1)NC(=O)[C@H]1NC(=O)[C@H](CCC(N)=O)NC(=O)[C@H](Cc2c[nH]c3cc(C)ccc23)NC(=O)[C@H]([C@@H](C)O)NC(=O)[C@H](CC(N)=O)NC(=O)[C@@H](NC(C)=O)C(C)(C)SSC1(C)C)C(=O)N[C@@H](CC(N)=O)C(=O)NCCC(N)=O [compound 230] | – | 10 | 10 to 100 | > 24 | –
6 | CC(=O)NCCCC[C@H](NC(=O)[C@](C)(CCCCN)NC(=O)[C@H](Cc1ccc2ccccc2c1)NC(=O)[C@H](Cc1ccc(OCCN)cc1)NC(=O)[C@H]1NC(=O)[C@H](CCC(N)=O)NC(=O)[C@H](Cc2c[nH]c3cccc(C)c23)NC(=O)[C@H]([C@@H](C)O)NC(=O)[C@H](CC(N)=O)NC(=O)[C@@H](NC(C)=O)C(C)(C)SSC1(C)C)C(=O)N[C@@H](CC(N)=O)C(=O)NCCC(N)=O [compound 231] | – | 15 | 1 to 10 | > 24 | –
7 | CC(=O)NCCCC[C@H](NC(=O)C1(NC(=O)[C@H](Cc2ccc3ccccc3c2)NC(=O)[C@H](Cc2ccc(OCCN)cc2)NC(=O)[C@H]2NC(=O)[C@H](CCC(N)=O)NC(=O)[C@H](Cc3c[nH]c4c(C)cccc34)NC(=O)[C@H]([C@@H](C)O)NC(=O)[C@H](CC(N)=O)NC(=O)[C@@H](NC(C)=O)C(C)(C)SSC2(C)C)CCC1)C(=O)N[C@@H](CC(N)=O)C(=O)NCCC(N)=O [compound 277] | – | 5 | < 1 | – | 6
8 | CC(=O)NCCCC[C@@H]1NC(=O)[C@H](Cc2c[nH]c3c(C)cccc23)NC(=O)[C@H]([C@@H](C)O)NC(=O)[C@H](CCC(N)=O)NC(=O)[C@@H](NC(=O)[C@@H](CCCNC(=N)N)NC(C)=O)CCSC[C@@H](C(=O)N[C@@H](Cc2ccc(OCCN)cc2)C(=O)N[C@@H](Cc2ccc3ccccc3c2)C(=O)N[C@@](C)(CCCCN)C(=O)N[C@@H](CCCCNC(C)=O)C(=O)N[C@@H](CC(N)=O)C(N)=O)NC1=O [compound 326] (Ac-[dR][Abu(4-yl)]QT[Trp(7-Me)]K(Ac)C[AEF][2Nal][αMeK]K(Ac)N-NH2; thioether 2-7) | – | 11 | 10 to 100 | 11 | –
9 | CC(=O)NCCCC[C@H](NC(=O)[C@](C)(CCCCN)NC(=O)[C@H](Cc1ccc2ccccc2c1)NC(=O)[C@H](Cc1ccc(OCCN)cc1)NC(=O)[C@H]1NC(=O)[C@H](CCCNC(N)=O)NC(=O)[C@H](Cc2c[nH]c3c(C)cccc23)NC(=O)[C@H]([C@@H](C)O)NC(=O)[C@H](CC(N)=O)NC(=O)[C@@H](NC(C)=O)C(C)(C)SSC1(C)C)C(=O)N[C@@H](CC(N)=O)C(=O)NC(C)(C)C(=O)N[C@H](CCCCN)C(N)=O [compound 344] (Ac-[Pen]NT[Trp(7-Me)][Cit][Pen][AEF][2Nal][αMeK]K(Ac)N[Aib][dK]-NH2; disulfide 1-6) | – | – | < 1 | – | –
10 | CC(=O)NCCCC[C@H](NC(=O)[C@](C)(CCCCN)NC(=O)[C@H](Cc1ccc2ccccc2c1)NC(=O)[C@H](Cc1ccc(OCCN)cc1)NC(=O)[C@H]1NC(=O)[C@H](CCCNC(N)=O)NC(=O)[C@H](Cc2c[nH]c3c(C)cccc23)NC(=O)[C@H]([C@@H](C)O)NC(=O)[C@H](CC(N)=O)NC(=O)[C@@H](NC(C)=O)C(C)(C)SSC1(C)C)C(=O)N[C@@H](CC(N)=O)C(=O)NC(C)(C)C(=O)N[C@H](Cc1ccccc1)C(N)=O [compound 346] (Ac-[Pen]NT[Trp(7-Me)][Cit][Pen][AEF][2Nal][αMeK]K(Ac)N[Aib][dF]-NH2; disulfide 1-6) | – | – | < 1 | – | –
11 | CC(=O)NCCCC[C@H](NC(=O)[C@](C)(CCCCN)NC(=O)[C@H](Cc1ccc2ccccc2c1)NC(=O)[C@H](Cc1ccc(OCCN)cc1)NC(=O)[C@H]1NC(=O)[C@H](CCCNC(N)=O)NC(=O)[C@H](Cc2c[nH]c3c(C)cccc23)NC(=O)[C@H]([C@@H](C)O)NC(=O)[C@H](CC(N)=O)NC(=O)[C@@H](NC(C)=O)C(C)(C)SSC1(C)C)C(=O)N[C@@H](CC(N)=O)C(=O)NC(C)(C)C(=O)N[C@H](Cc1ccc(O)cc1)C(N)=O [compound 347] (Ac-[Pen]NT[Trp(7-Me)][Cit][Pen][AEF][2Nal][αMeK]K(Ac)N[Aib][dY]-NH2; disulfide 1-6) | – | – | < 1 | – | –
12 | CC(=O)NCCCC[C@H](NC(=O)[C@](C)(CCCCN)NC(=O)[C@H](Cc1ccc2ccccc2c1)NC(=O)[C@H](Cc1ccc(OCCN)cc1)NC(=O)[C@H]1NC(=O)[C@H](CCCNC(N)=O)NC(=O)[C@H](Cc2c[nH]c3c(C)cccc23)NC(=O)[C@H]([C@@H](C)O)NC(=O)[C@H](CC(N)=O)NC(=O)[C@@H](NC(C)=O)C(C)(C)SSC1(C)C)C(=O)N[C@@H](CC(N)=O)C(=O)NC(C)(C)C(=O)N[C@H](Cc1ccc2ccccc2c1)C(N)=O [compound 348] (Ac-[Pen]NT[Trp(7-Me)][Cit][Pen][AEF][2Nal][αMeK]K(Ac)N[Aib][d2Nal]-NH2; disulfide 1-6) | – | – | 1 to 10 | – | –
13 | CCc1ccc2c(C[C@@H]3NC(=O)[C@H]([C@@H](C)O)NC(=O)[C@H](CC(N)=O)NC(=O)[C@@H](NC(C)=O)C(C)(C)SSC(C)(C)[C@@H](C(=O)N[C@@H](Cc4ccc(OCCN)cc4)C(=O)N[C@@H](Cc4ccc5ccccc5c4)C(=O)N[C@@](C)(CCCCN)C(=O)N[C@@H](CCCCNC(C)=O)C(=O)N[C@@H](CC(N)=O)C(=O)N[C@H](CCCCN)C(N)=O)NC(=O)[C@H](CCCCNC(C)=O)NC3=O)c[nH]c2c1 [compound 349] (Ac-[Pen]NT[X3]K(Ac)[Pen][AEF][2Nal][αMeK]K(Ac)N[dK]-NH2; disulfide 1-6) | 1 to 10 | – | – | – | –
14 | CC(=O)NCCCC[C@@H]1NC(=O)[C@H](Cc2c[nH]c3c(C)cccc23)NC(=O)[C@H]([C@@H](C)O)NC(=O)[C@H](CC(N)=O)NC(=O)[C@@H](NC(C)=O)C(C)(C)SSC(C)(C)[C@@H](C(=O)N[C@@H](Cc2ccc(OCCN)cc2)C(=O)N[C@@H](Cc2ccc3ccccc3c2)C(=O)N[C@@](C)(CCCCN)C(=O)N[C@@H](CCCCNC(C)=O)C(=O)N[C@@H](CO)C(=O)N[C@H](CCCCN)C(N)=O)NC1=O [compound 352] | 1 to 10 | – | – | – | –
15 | CC(=O)NCCCC[C@@H]1NC(=O)[C@H](Cc2c[nH]c3c(C)cccc23)NC(=O)[C@H]([C@@H](C)O)NC(=O)[C@H](CC(N)=O)NC(=O)[C@@H](NC(C)=O)C(C)(C)SSC(C)(C)[C@@H](C(=O)N[C@@H](Cc2ccc(OCCN)cc2)C(=O)N[C@@H](Cc2c(C)[nH]c3ccccc23)C(=O)N[C@@](C)(CCCCN)C(=O)N[C@@H](CCCCNC(C)=O)C(=O)N[C@@H](CC(N)=O)C(=O)N[C@H](CCCCN)C(N)=O)NC1=O [compound 353] (Ac-[Pen]NT[Trp(7-Me)]K(Ac)[Pen][AEF][Trp(2-Me)][αMeK]K(Ac)N[dK]-NH2; disulfide 1-6) | – | – | < 1 | – | –
